Source: PubChem BioAssay (NCI)
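Here, GI50 denotes the concentration required for 50% inhibition of growth. At the TGI there is no net growth.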

Legend:
Assay in all cases: inhibition of tumour cell growth, NCI panel, 384-well format
786-0 renal = system: 786-0 renal
A498 renal = system: A498 renal
A549 NSCLC = system: A549 NSCLC
ACHN renal = system: ACHN renal
BT-549 breast = system: BT-549 breast
CAKI-1 renal = system: CAKI-1 renal
CCRF-CEM leukemia = system: CCRF-CEM leukemia
COLO 205 colon = system: COLO 205 colon
DU-145 prostate = system: DU-145 prostate
HCC-2998 colon = system: HCC-2998 colon
HCT-116 colon = system: HCT-116 colon
HCT-15 colon = system: HCT-15 colon
HL-60(TB) leukemia = system: HL-60(TB) leukemia
HOP-62 NSCLC = system: HOP-62 NSCLC
HOP-92 NSCLC = system: HOP-92 NSCLC
HT29 colon = system: HT29 colon
IGROV1 ovarian = system: IGROV1 ovarian
K-562 leukemia = system: K-562 leukemia
KM12 colon = system: KM12 colon
LOX IMVI melanoma = system: LOX IMVI melanoma
M14 melanoma = system: M14 melanoma
MALME-3M melanoma = system: MALME-3M melanoma
MCF7 breast = system: MCF7 breast
MDA-MB-231 breast = system: MDA-MB-231 breast
MDA-MB-435 melanoma = system: MDA-MB-435 melanoma
MDA-MB-468 breast = system: MDA-MB-468 breast
MOLT-4 leukemia = system: MOLT-4 leukemia
NCI-H226 lung = system: NCI-H226 lung
NCI-H23 lung = system: NCI-H23 lung
NCI-H322M lung = system: NCI-H322M lung
NCI-H460 NSCLC = system: NCI-H460 NSCLC
NCI-H522 lung = system: NCI-H522 lung
NCI/ADR-RES ovarian = system: NCI/ADR-RES ovarian
OVCAR-3 ovarian = system: OVCAR-3 ovarian
OVCAR-4 ovarian = system: OVCAR-4 ovarian
OVCAR-5 ovarian = system: OVCAR-5 ovarian
OVCAR-8 ovarian = system: OVCAR-8 ovarian
PC-3 prostate = system: PC-3 prostate
RPMI-8226 leukemia = system: RPMI-8226 leukemia
RXF 393 renal = system: RXF 393 renal
SF-268 CNS = system: SF-268 CNS
SF-295 CNS = system: SF-295 CNS
SF-539 CNS = system: SF-539 CNS
SK-MEL-2 melanoma = system: SK-MEL-2 melanoma
SK-MEL-28 melanoma = system: SK-MEL-28 melanoma
SK-MEL-5 melanoma = system: SK-MEL-5 melanoma
SK-OV-3 ovarian = system: SK-OV-3 ovarian
SN12C renal = system: SN12C renal
SNB-19 CNS = system: SNB-19 CNS
SR leukemia = system: SR leukemia
SW-620 colon = system: SW-620 colon
T-47D breast = system: T-47D breast
TK-10 renal = system: TK-10 renal
U251 glioblastoma = system: U251 glioblastoma
UACC-257 melanoma = system: UACC-257 melanoma
UACC-62 melanoma = system: UACC-62 melanoma
UO-31 renal = system: UO-31 renal

COc1cc2c(Oc3ccc(NC(=O)C4(C(=O)Nc5ccc(F)cc5)CC4)cc3F)ccnc2cc1OCCCN1CCOCC1
GI50 ([…]-0 renal): 1190 nM | TGI (786-0 renal): 2420 nM | GI50 (A498 renal): 838 nM | TGI (A498 renal): 2080 nM | GI50 (A549 NSCLC): 329 nM | TGI (A549 NSCLC): 1170 nM | GI50 (ACHN renal): 205 nM | TGI (ACHN renal): 718 nM | GI50 (BT-549 breast): 440 nM | TGI (BT-549 breast): 1510 nM | GI50 (CAKI-1 renal): 183 nM | TGI (CAKI-1 renal): 584 nM | GI50 (CCRF-CEM leukemia): 52.8 nM | TGI (CCRF-CEM leukemia): 189 nM | GI50 (COLO 205 colon): 211 nM | TGI (COLO 205 colon): 460 nM | GI50 (DU-145 prostate): 1160 nM | TGI (DU-145 prostate): 2390 nM | GI50 (HCC-2998 colon): 1110 nM | TGI (HCC-2998 colon): 2320 nM | GI50 (HCT-116 colon): 379 nM | TGI (HCT-116 colon): 1570 nM | GI50 (HCT-15 colon): 419 nM | TGI (HCT-15 colon): 1590 nM | GI50 (HL-60(TB) leukemia): 194 nM | TGI (HL-60(TB) leukemia): 387 nM | GI50 (HOP-62 NSCLC): 668 nM | TGI (HOP-62 NSCLC): 1930 nM | GI50 (HOP-92 NSCLC): 107 nM | TGI (HOP-92 NSCLC): 421 nM | GI50 (HT29 colon): 324 nM | TGI (HT29 colon): 1220 nM | GI50 (IGROV1 ovarian): 275 nM | TGI (IGROV1 ovarian): 990 nM | GI50 (K-562 leukemia): 40.3 nM | TGI (K-562 leukemia): 143 nM | TGI (KM12 colon): 931 nM | GI50 (LOX IMVI melanoma): 386 nM | TGI (LOX IMVI melanoma): 945 nM | GI50 (M14 melanoma): 293 nM | TGI (M14 melanoma): 882 nM | GI50 (MALME-3M melanoma): 185 nM | TGI (MALME-3M melanoma): 541 nM | GI50 (MCF7 breast): 331 nM | TGI (MCF7 breast): 1440 nM | GI50 (MDA-MB-231 breast): 361 nM | TGI (MDA-MB-231 breast): 1660 nM | GI50 (MDA-MB-435 melanoma): 331 nM | TGI (MDA-MB-435 melanoma): 1200 nM | GI50 (MDA-MB-468 breast): 270 nM | TGI (MDA-MB-468 breast): 547 nM | GI50 (MOLT-4 leukemia): 42.5 nM | TGI (MOLT-4 leukemia): 137 nM | GI50 (NCI-H226 lung): 276 nM | TGI (NCI-H226 lung): 966 nM | GI50 (NCI-H23 lung): 46.3 nM | TGI (NCI-H23 lung): 642 nM | GI50 (NCI-H322M lung): 866 nM | TGI (NCI-H322M lung): 2100 nM | GI50 (NCI-H460 NSCLC): 219 nM | TGI (NCI-H460 NSCLC): 1130 nM | GI50 (NCI-H522 lung): 211 nM | TGI (NCI-H522 lung): 817 nM | GI50 (NCI/ADR-RES ovarian): 436 nM | TGI (NCI/ADR-RES ovarian): 1600 nM | GI50 (OVCAR-3 ovarian): 554 nM | TGI (OVCAR-3 ovarian): 1780 nM | GI50 (OVCAR-4 ovarian): 409 nM | TGI (OVCAR-4 ovarian): 1770 nM | GI50 (OVCAR-5 ovarian): 911 nM | TGI (OVCAR-5 ovarian): 2120 nM | GI50 (OVCAR-8 ovarian): 1190 nM | TGI (OVCAR-8 ovarian): 2430 nM | GI50 (PC-3 prostate): 1300 nM | TGI (PC-3 prostate): 2580 nM | GI50 (RPMI-8226 leukemia): 202 nM | TGI (RPMI-8226 leukemia): 492 nM | GI50 (RXF 393 renal): 158 nM | TGI (RXF 393 renal): 548 nM | GI50 (SF-268 CNS): 781 nM | TGI (SF-268 CNS): 2020 nM | GI50 (SF-295 CNS): 94 nM | TGI (SF-295 CNS): 1510 nM | GI50 (SF-539 CNS): 135 nM | TGI (SF-539 CNS): 489 nM | GI50 (SK-MEL-2 melanoma): 300 nM | TGI (SK-MEL-2 melanoma): 1240 nM | GI50 (SK-MEL-28 melanoma): 361 nM | TGI (SK-MEL-28 melanoma): 1430 nM | GI50 (SK-MEL-5 melanoma): 333 nM | TGI (SK-MEL-5 melanoma): 1460 nM | GI50 (SK-OV-3 ovarian): 522 nM | TGI (SK-OV-3 ovarian): 1790 nM | GI50 (SN12C renal): 175 nM | TGI (SN12C renal): 1060 nM | GI50 (SNB-19 CNS): 1180 nM | TGI (SNB-19 CNS): 2410 nM | GI50 (SR leukemia): 131 nM | TGI (SR leukemia): 261 nM | GI50 (SW-620 colon): 201 nM | TGI (SW-620 colon): 747 nM | GI50 (T-47D breast): 1050 nM | TGI (T-47D breast): 2230 nM | GI50 (TK-10 renal): 648 nM | TGI (TK-10 renal): 1910 nM | GI50 (U251 glioblastoma): 1140 nM | TGI (U251 glioblastoma): 2360 nM | GI50 (UACC-257 melanoma): 265 nM | TGI (UACC-257 melanoma): 859 nM | GI50 (UACC-62 melanoma): 369 nM | TGI (UACC-62 melanoma): 1550 nM | GI50 (UO-31 renal): 314 nM | TGI (UO-31 renal): 1110 nM
